Measurements published in patent publication US20100022600A1, “METHODS AND COMPOSITIONS FOR TREATING CENTRAL NERVOUS SYSTEM TUMORS” (priority 2006, published 2010).

What was measured:
Ki-67 = Ki-67 immunoreactivity and proliferation-index in vivo; set-up: species or system rat; conditions: 9, 14 and 21 days of pio treatment
Method: Frozen brain sections were first blocked with 5% normal goat serum or normal horse serum in PBS and subsequently incubated with rabbit anti-Ki-67 antibody (1:200 dilution), mouse anti-CS-56 (1:100 dilution), goat anti-MMP-9 (1:100 dilution) or rabbit anti-cleaved caspase-3 antibody (1:200 dilution) at 4° C. overnight. Sections were washed extensively with PBS before incubation with secondary antibodies. Incubation was carried at room temperature for 1 h. After washing with PBS three times, stained slides were mounted with PBS/glycerol (1:1) and viewed under a fluorescent microscope (Leica, Germany). For determination of the proliferation-index, Ki-67 positive cells in pio and vehicle treated cells and animals were counted, the percentage of Ki-67 positive cells in 1×10^3 tumor cells (P1 staining used in the in vitro experiments—not shown; DAPI stain used in the in vivo experiments) calculated and statistically compared. The percentage of cleaved caspase-3 positive cells was assessed by counting the immunopositive cells in 1×10^3 tumor (DAPI stain) cells and statistically compared.

CS-56 = CS-56 expression in tumor cells in vitro; assay type: cell-based; conditions: data not shown
cleaved caspase-3 = test: Western blot of cleaved caspase-3 in whole-hemisphere lysates, C6 rat glioma model; assay type: in vivo; conditions: 6 d of pio treatment
Method: For western-blot analysis, tumor-containing hemispheres were homogenized in Tris-HCl [50 mM Tris-HCl pH8, 120 mM NaCl, 5 mM EDTA, 0.5% (v/v) NP-40, […] phenylmethylsulfonyl fluoride (PMSF)] and sonicated. Homogenates were collected by centrifugation (15 min 11000 g. 4° C.) and protein concentration in the supernatant was determined using the Bio-Rad Protein Assay (Biorad, Munich, Germany). Lysates (20-40 μg) were separated on a 7% (w/v) sodium dodecyl sulfate (SDS)-polyacrylamide gel under reducing conditions and transferred to a PVDF membrane (Millipore, Bedford, Mass., USA). Non-specific binding was blocked by incubation with 5% (w/v) skimmed milk in TBS for 2 h. Following incubation with the primary antibody overnight at 4° C. [rabbit anti-BAX 1:1000, rabbit anti-cleaved caspase-3 1:1000, mouse […] 1:1000, goat anti-MMP-9 1:1000 in TBS containing 0.1% (v/v) Tween 20] membranes were washed three times in TBS/Tween for 5 min and subsequently incubated for 120 min in TBS/Tween containing secondary peroxidase-conjugated antibody at room temperature (anti-rabbit 1:1000, anti-mouse 1:1000; anti-goat 1:1000 respectively). Signals were visualized by chemoluminescence (Pierce, Rockford, Ill., USA) and band intensities were quantified with NIH Image 1.62 software (Bethesda, Md., USA).

CCc1ccc(CCOc2ccc(CC3SC(=O)NC3=O)cc2)nc1 (stereo not drawn) [pioglitazone, 5-[4-[2-(5-ethylpyridin-2-yl)ethoxyl]benzyl]thiazolidine-2,4-dione]
Ki-67 expression in vivo (Ki-67): significant reduction of Ki-67 expression
CS-56 expression in vitro (CS-56): highly upregulated
induction of cleaved caspase-3 (densitometry) (cleaved caspase-3): 2.88 fold
